The results in this text go back to US7566683B2, “Ethylene derivatives and pesticides containing said derivatives” (priority 1996, dated 2009).

Molecules are shown by their SMILES.

Data set [1] relates to Two-Spotted Spider Mites (Tetranychus urticae Koch). As to the kind of experiment: whole plant or invertebrate. Type of data set: in vivo. The conditions noted are these: foliar, 500 ppm solution sprayed 2 ml/cup on kidney bean leaf discs, larvae, 25° C., after 96 hours. As for the experimental part:
The leaves of kidney bean plants were punched into 3 cm-diameter discs, using a leaf punch, and put onto moistured filter paper in a 7 cm-diameter styrol cup. Ten (10) larvae of two-spotted spider mites (Tetranychus urticae) were put to each leaf. […] The solution was sprayed over each cup in an amount of 2 ml/cup, using a rotary sprinkler, and the cups were stored in a thermostatic chamber at 25° C. […] Each compound was tested in that manner for two groups of cups.

The test system of data set [2] is Cucurbit Leaf Beetles (Aulacophora femoralis Motschulsky). As to the kind of experiment: Insecticidal test for cucurbit leaf beetles. Type of data set: in vivo. The conditions noted are these: 144 h, cucumber leaves dipped in 500 ppm solution, second instar nymphae, 25° C., after 6 days. As to the method: The leaves of cucumbers were dipped in this chemical solution for about 10 seconds, dried in air, and put into a laboratory dish. Ten (10) second instar nymphae of cucurbit leaf beetles (Aulacophora femoralis) were released in each dish. Each dish was covered with a cover, and stored in a thermostatic chamber at 25° C. […] Each compound was tested in that manner for two groups of dishes.

For data set [3], the system named is Diamond Back Moth (Plutella xylostella Linné). Kind of data set: Insecticidal test for diamond back moth. The data set is classed as in vivo. The conditions noted are these: 144 h, cabbage leaves dipped in 500 ppm aqueous emulsion, second larvae, 25° C., after 6 days. As to the method: The leaves of cabbage were dipped in a 500 ppm aqueous emulsion of a compound of the invention for about 10 seconds. After having been dried in air, the thus-treated leaves were put into laboratory dishes. Ten (10) second larvae of diamond back moth (Plutella xylostella) were released in each dish. Each dish was covered with a perforated cover, and stored in a thermostatic chamber at 25° C. […] Each compound was tested in that manner for two groups of dishes.

Data set [4] has as its system Green Peach Aphids (Myzus persicae Sulzer). Kind of data set: Insecticidal test for green peach aphids. The conditions noted are these: 144 h, 500 ppm spray (2.5 mg/cm^2) on cabbage leaf, apterous adults, larvae and adults counted after 6 days. The data set is classed as in vivo. As to the method:
Moistured filter paper was placed in each laboratory glass dish having an inner diameter of 3 cm, and a leaf cabbage having the same diameter as that of the dish was put on the filter paper. Four female, apterous adults of green peach aphids (Myzus persicae) were put on the cabbage leaf. Fllowing day, a chemical sample (2.5 mg/cm^2) was sprayed over the dishes, using a rotary sprinkler. […] After 6 days passed, the insects in each cylinder were observed, and mortality of the insects (larvae and adults) was determined according to the following equation. Each compound was tested in that manner for two groups of dishes. Mortality (%)=[number of insect killed/(number of insect killed+number of living insect)]×100

Data set [5] concerns Brown Rice Planthopper (Nilaparvata lugens Stal). As to the kind of experiment: Insecticidal test for brown rice planthopper. The data set is classed as in vivo. The conditions noted are these: 144 h, 500 ppm solution applied to rice stems and leaves, second instar nymphae, after 6 days. From the text: The stems and leaves of rice-plants in 1/20,000 are pot were sufficiently applied with the resulting solution. After the thus-applied chemical solution was dried in air, each pot was covered with a cylindrical cover. Ten (10) second instar nymphae of brown rice planthoppers (Nilaparvata lugens) were released in each pot. After having been thus covered, the pots were stored in a thermostatic chamber. After 6 days passed, the insects in each pot were observed, and the mortality thereof was determined according to the following equation. Each compound was tested in that manner for two groups of pots. Mortality (%)=([number of insect killed/(number of insect killed+number of living insect)]×100

Consider `Cn1nc(C(F)(F)F)c(C(O)=C(Br)n2ccc(-c3c(F)cccc3F)n2)c1Cl`, for which the melting point lay in the range of 123 to 125 °C.
Same read-out and setting: then `Cn1nc(Cl)c(C(=O)C(Br)c2ccccc2)c1Cl` (stereo not shown), with 74.5 to 75.5 °C.
For the compound `Cn1nc(Cl)c(C(O)=C(C#N)n2ccc(-c3c(F)cccc3F)n2)c1Cl` [I-40, 2-{3-(2,6-difluorophenyl)pyrazol-1-yl}-3-(1-methyl-3,5-dichloropyrazol-4-yl)-3-hydroxyacrylonitrile], the mortality at 500 ppm in data set [1] is not below 80%; in data set [2] it was 100%; in data set [3], not below 80%; in data set [4] it was not below 80%.
On to `Cn1nc(Cl)c(C(O)=C(C#N)c2csc(-c3ccccc3)n2)c1Cl` [II-1, 3-(1-methyl-3,5-dichloropyrazol-4-yl)-2-(2-phenylthiazol-4-yl)-3-hydroxyacrylonitrile], for which the mortality at 500 ppm in data set [2] is 100%; in data set [5], not below 80%; in data set [3], not below 80%.
`Cc1nc(C(F)(F)F)c(C(OC(=O)c2ccccc2)=C(C#N)c2csc(C(C)(C)C)n2)s1` [II-75, 2-(2-tert-butylthiazol-4-yl)-3-(2-methyl-4-trifluoromethylthiazol-5-yl)-3-benzoyloxyacrylonitrile]: the mortality at 500 ppm in data set [1], in data set [5], in data set [3] and in data set [4] was not below 80% each time.
With `Cn1nc(C(F)(F)F)c(C(OC(=O)C(C)(C)C)=C(C#N)c2nc(C(C)(C)C)cs2)c1Cl` [III-6, 3-(1-methyl-3-trifluoromethyl-5-chloropyrazol-4-yl)-2-(4-tert-butylthiazol-2-yl)-3-pivaloyloxyacrylonitrile], the mortality at 500 ppm was not below 80% in data set [1]; 100% in data set [2]; not below 80% in data set [5]; not below 80% in data set [3]; not below 80% in data set [4].
On to `Cn1nc(Cl)c(C(=O)OC(=C(C#N)c2ccc(C(F)(F)F)cc2)c2c(Cl)nn(C)c2Cl)c1Cl` [IV-5, 2-(4-trifluoromethylphenyl)-3-(1-methyl-3,5-dichloropyrazol-4-yl)-3-(1-methyl-3,5-dichloropyrazole-4-carbonyloxy)acrylonitrile], for which the mortality at 500 ppm in data set [1] was not below 80%.
The same measure, in the same setting: then `Cn1nc(Cl)c(C(O)=C(C#N)c2ccc(C(C)(C)C)cc2)c1Cl` [IV-18, 2-(4-tert-butylphenyl)-3-(1-methyl-3,5-dichloropyrazol-4-yl)-3-hydroxyacrylonitrile], with not below 80%.
Still for that read-out and setting: for `Cn1nc(C(F)(F)F)c(C(OC(=O)C(C)(C)C)=C(C#N)c2ccc(C(C)(C)C)cc2)c1Cl` [IV-24, 2-(4-tert-butylphenyl)-3-(1-methyl-3-trifluoromethyl-5-chloropyrazol-4-yl)-3-pivaloyloxyacrylonitrile] the value was not below 80%.
The same measure, in the same setting: then `COC(=O)OC(=C(C#N)c1ccc(C(C)(C)C)cc1)c1c(Cl)nn(C)c1Cl` [IV-36, 2-(4-tert-butylphenyl)-3-(3,5-dichloro-1-methylpyrazol-4-yl)-3-methoxycarbonyloxyacrylonitrile], with not below 80%.
Consider `Cn1nc(Cl)c(C(O)=C(C#N)c2coc(C(C)(C)C)n2)c1Cl` [V-40, 2-{2-tert-butyloxazol-4-yl}-3-(3,5-dichloro-1-methyl-pyrazol-4-yl)-3-hydroxyacrylonitrile], for which the mortality at 500 ppm in data set [1] is not below 80%; in data set [2], 100%.
As to `CCOCOC(=C(C#N)c1coc(C(C)(C)C)n1)c1c(C(F)(F)F)nn(C)c1Cl` [V-44, 2-(2-tert-butyloxazol-4-yl)-3-(5-chloro-1-methyl-3-trifluoromethylpyrazol-4-yl)-3-ethoxymethoxyacrylonitrile], the mortality at 500 ppm in data set [1] was not below 80%.

One may read the melting point as the temperature of the solid-liquid transition. By mortality is commonly meant the share of the test organisms that died. Low readings indicate more survivors, high ones fewer survivors.
